ChEMBL document CHEMBL4507298 (2021)

Legend:
[1] = biological target: 5-hydroxytryptamine receptor 1B (Homo sapiens) (UniProt P28222); assay: 5-HT1B CEREP ligand profiling; conditions: Compound concentration 10.0 uM
[2] = biological target: 5-hydroxytryptamine receptor 2B (Homo sapiens) (UniProt P41595); assay: 5-HT2B (h) (agonist site/DOI) CEREP ligand profiling; conditions: Compound concentration 10.0 uM
[3] = biological target: Beta-3 adrenergic receptor (Homo sapiens) (UniProt P13945); assay: beta 3 (h) CEREP ligand profiling; conditions: Compound concentration 10.0 uM
[4] = biological target: CYP3A4 (Homo sapiens, UniProt P08684); assay: CYP3A4 inhibition CEREP ligand profiling; conditions: compound concentration 10 uM
[5] = biological target: D(2) dopamine receptor (Homo sapiens) (UniProt P14416); assay: D2S (h) CEREP ligand profiling; conditions: Compound concentration 10.0 uM
[6] = biological target: Sodium-dependent dopamine transporter (Homo sapiens) (UniProt Q01959); assay: DA transporter (h) CEREP ligand profiling; conditions: Compound concentration 10.0 uM
[7] = biological target: Endothelin receptor type B (Homo sapiens) (UniProt P24530); assay: ETB (h) CEREP ligand profiling; conditions: Compound concentration 10.0 uM
[8] = biological target: Vascular endothelial growth factor receptor 1 (Homo sapiens) (UniProt P17948); assay: FLT-1 kinase (h) (VEGFR1) CEREP ligand profiling; conditions: Compound concentration 10.0 uM
[9] = biological target: Kappa-type opioid receptor (Homo sapiens) (UniProt P41145); assay: kappa (KOP) CEREP ligand profiling; conditions: Compound concentration 10.0 uM
[10] = biological target: Melanocyte-stimulating hormone receptor (Homo sapiens) (UniProt Q01726); assay: MC1 CEREP ligand profiling; conditions: Compound concentration 10.0 uM
[11] = biological target: Neuronal acetylcholine receptor; alpha4/beta2 (Homo sapiens) (UniProt P17787+P43681); assay: N (neuronal) (alpha -BGTX-insensitive) (alpha 4 beta 2) CEREP ligand profiling; assay type: protein-complex assay; conditions: Compound concentration 10.0 uM
[12] = biological target: cGMP-dependent 3',5'-cyclic phosphodiesterase (Homo sapiens) (UniProt O00408); assay: PDE2 (h) CEREP ligand profiling; conditions: Compound concentration 10.0 uM
[13] = biological target: Phosphodiesterase 4 (Homo sapiens) (UniProt P27815+Q08499+Q07343+Q08493); assay: PDE4 (h) CEREP ligand profiling; assay type: protein assay; conditions: Compound concentration 10.0 uM
[14] = biological target: Calcium-activated potassium channel (Homo sapiens) (UniProt Q92952+Q9UGI6+Q12791+O15554+Q9H2S1+A8MYU2); assay: SK+Ca channel CEREP ligand profiling; assay type: protein assay; conditions: Compound concentration 10.0 uM
[15] = biological target: Vasopressin V2 receptor (Homo sapiens) (UniProt P30518); assay: V2 (h) CEREP ligand profiling; conditions: Compound concentration 10.0 uM
[16] = system: Tyrosine-protein kinase ABL1 (Homo sapiens), P00519 [M351T]; conditions: Compound concentration 1000.0 nM
[17] = biological target: 5'-AMP-activated protein kinase catalytic subunit alpha-2 (Homo sapiens) (UniProt P54646); conditions: Compound concentration 1000.0 nM
[18] = biological target: Mitogen-activated protein kinase kinase kinase 6 (Homo sapiens) (UniProt O95382); conditions: Compound concentration 1000.0 nM
[19] = biological target: Aurora kinase C (Homo sapiens) (UniProt Q9UQB9); conditions: Compound concentration 1000.0 nM
[20] = biological target: Bone morphogenetic protein receptor type-1B (Homo sapiens) (UniProt O00238); conditions: Compound concentration 1000.0 nM
[21] = biological target: Tyrosine-protein kinase BTK (Homo sapiens) (UniProt Q06187); conditions: Compound concentration 1000.0 nM
[22] = biological target: Cyclin-dependent kinase 8 (Homo sapiens) (UniProt P49336); conditions: Compound concentration 1000.0 nM
[23] = biological target: Serine/threonine-protein kinase Chk2 (Homo sapiens) (UniProt O96017); conditions: Compound concentration 1000.0 nM
[24] = biological target: Myotonin-protein kinase (Homo sapiens) (UniProt Q09013); conditions: Compound concentration 1000.0 nM
[25] = system: Epidermal growth factor receptor (Homo sapiens), P00533 [UNDEFINED MUTATION]; conditions: Compound concentration 1000.0 nM
[26] = biological target: Tyrosine-protein kinase Fer (Homo sapiens) (UniProt P16591); conditions: Compound concentration 1000.0 nM
[27] = system: Receptor-type tyrosine-protein kinase FLT3 (Homo sapiens), P36888 [UNDEFINED MUTATION]; conditions: Compound concentration 1000.0 nM
[28] = biological target: G protein-coupled receptor kinase 3 (Homo sapiens) (UniProt P35626); conditions: Compound concentration 1000.0 nM
[29] = biological target: Inhibitor of nuclear factor kappa-B kinase subunit epsilon (Homo sapiens) (UniProt Q14164); conditions: Compound concentration 1000.0 nM
[30] = biological target: Mitogen-activated protein kinase 8 (Homo sapiens) (UniProt P45983); conditions: Compound concentration 1000.0 nM
[31] = biological target: Tyrosine-protein kinase Lyn (Homo sapiens) (UniProt P07948); conditions: Compound concentration 1000.0 nM
[32] = biological target: MAP kinase-activated protein kinase 5 (Homo sapiens) (UniProt Q8IW41); conditions: Compound concentration 1000.0 nM
[33] = biological target: Serine/threonine-protein kinase MARK2 (Homo sapiens) (UniProt Q7KZI7); conditions: Compound concentration 1000.0 nM
[34] = biological target: Dual specificity mitogen-activated protein kinase kinase 3 (Homo sapiens) (UniProt P46734); conditions: Compound concentration 1000.0 nM
[35] = biological target: Dual specificity mitogen-activated protein kinase kinase 5 (Homo sapiens) (UniProt Q13163); conditions: Compound concentration 1000.0 nM
[36] = system: Proto-oncogene tyrosine-protein kinase receptor Ret (Homo sapiens), P07949 [V804L]; conditions: Compound concentration 1000.0 nM
[37] = biological target: Ribosomal protein S6 kinase alpha-3 (Homo sapiens) (UniProt P51812); conditions: Compound concentration 1000.0 nM
[38] = biological target: NUAK family SNF1-like kinase 2 (Homo sapiens) (UniProt Q9H093); conditions: Compound concentration 1000.0 nM
[39] = biological target: STE20/SPS1-related proline-alanine-rich protein kinase (Homo sapiens) (UniProt Q9UEW8); conditions: Compound concentration 1000.0 nM
[40] = biological target: Tyrosine-protein kinase SYK (Homo sapiens) (UniProt P43405); conditions: Compound concentration 1000.0 nM
[41] = biological target: TRAF2 and NCK-interacting protein kinase (Homo sapiens) (UniProt Q9UKE5); conditions: Compound concentration 1000.0 nM
[42] = biological target: Serine/threonine-protein kinase ULK3 (Homo sapiens) (UniProt Q6PHR2); conditions: Compound concentration 1000.0 nM
[43] = biological target: Serine/threonine-protein kinase WNK3 (Homo sapiens) (UniProt Q9BYP7); conditions: Compound concentration 1000.0 nM
[44] = biological target: Sigma non-opioid intracellular receptor 1 (Homo sapiens) (UniProt Q99720); conditions: Compound concentration 10.0 uM
Sequence of Sigma non-opioid intracellular receptor 1 (Homo sapiens) (Q99720 whole entry): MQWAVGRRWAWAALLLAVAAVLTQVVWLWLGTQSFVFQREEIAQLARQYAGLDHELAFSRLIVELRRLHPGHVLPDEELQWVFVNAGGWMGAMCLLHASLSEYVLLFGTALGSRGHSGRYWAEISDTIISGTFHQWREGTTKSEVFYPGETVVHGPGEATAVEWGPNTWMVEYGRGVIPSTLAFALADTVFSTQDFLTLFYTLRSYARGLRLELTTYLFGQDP

Sequence of Mitogen-activated protein kinase kinase kinase 6 (Homo sapiens) (O95382 whole entry): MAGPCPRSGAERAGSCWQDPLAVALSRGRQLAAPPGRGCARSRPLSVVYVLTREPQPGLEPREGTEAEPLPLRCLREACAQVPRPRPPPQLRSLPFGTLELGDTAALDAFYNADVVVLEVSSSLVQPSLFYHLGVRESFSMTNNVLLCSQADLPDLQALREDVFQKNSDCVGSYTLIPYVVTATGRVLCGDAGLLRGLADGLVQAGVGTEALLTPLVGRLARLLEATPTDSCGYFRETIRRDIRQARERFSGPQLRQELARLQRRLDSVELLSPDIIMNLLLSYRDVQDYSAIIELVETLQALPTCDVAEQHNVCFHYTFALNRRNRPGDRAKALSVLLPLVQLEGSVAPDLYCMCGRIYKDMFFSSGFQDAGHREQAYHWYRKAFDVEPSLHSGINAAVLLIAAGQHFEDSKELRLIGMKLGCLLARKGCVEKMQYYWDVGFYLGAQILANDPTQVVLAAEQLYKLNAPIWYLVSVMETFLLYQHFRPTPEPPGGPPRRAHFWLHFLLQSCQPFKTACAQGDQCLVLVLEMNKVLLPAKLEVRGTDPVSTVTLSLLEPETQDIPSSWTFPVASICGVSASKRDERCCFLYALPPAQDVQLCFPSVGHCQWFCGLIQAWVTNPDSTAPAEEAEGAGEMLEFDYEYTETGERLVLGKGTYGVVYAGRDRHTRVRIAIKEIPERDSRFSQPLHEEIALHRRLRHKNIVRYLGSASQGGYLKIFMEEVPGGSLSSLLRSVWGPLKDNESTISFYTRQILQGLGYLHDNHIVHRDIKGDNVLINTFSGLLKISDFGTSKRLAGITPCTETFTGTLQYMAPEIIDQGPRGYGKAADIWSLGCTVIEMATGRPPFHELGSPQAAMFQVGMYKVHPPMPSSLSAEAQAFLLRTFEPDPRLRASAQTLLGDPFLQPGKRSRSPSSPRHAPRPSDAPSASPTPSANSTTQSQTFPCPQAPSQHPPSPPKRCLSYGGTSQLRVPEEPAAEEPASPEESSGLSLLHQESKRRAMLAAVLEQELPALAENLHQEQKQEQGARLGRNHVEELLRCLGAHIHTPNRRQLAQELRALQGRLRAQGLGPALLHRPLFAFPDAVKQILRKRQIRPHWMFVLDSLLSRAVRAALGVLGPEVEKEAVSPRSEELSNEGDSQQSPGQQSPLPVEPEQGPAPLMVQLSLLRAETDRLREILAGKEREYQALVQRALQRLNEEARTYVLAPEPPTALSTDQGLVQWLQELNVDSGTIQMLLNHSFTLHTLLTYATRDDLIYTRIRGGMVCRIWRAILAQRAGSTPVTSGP
Sequence of Tyrosine-protein kinase BTK (Homo sapiens) (Q06187 whole entry): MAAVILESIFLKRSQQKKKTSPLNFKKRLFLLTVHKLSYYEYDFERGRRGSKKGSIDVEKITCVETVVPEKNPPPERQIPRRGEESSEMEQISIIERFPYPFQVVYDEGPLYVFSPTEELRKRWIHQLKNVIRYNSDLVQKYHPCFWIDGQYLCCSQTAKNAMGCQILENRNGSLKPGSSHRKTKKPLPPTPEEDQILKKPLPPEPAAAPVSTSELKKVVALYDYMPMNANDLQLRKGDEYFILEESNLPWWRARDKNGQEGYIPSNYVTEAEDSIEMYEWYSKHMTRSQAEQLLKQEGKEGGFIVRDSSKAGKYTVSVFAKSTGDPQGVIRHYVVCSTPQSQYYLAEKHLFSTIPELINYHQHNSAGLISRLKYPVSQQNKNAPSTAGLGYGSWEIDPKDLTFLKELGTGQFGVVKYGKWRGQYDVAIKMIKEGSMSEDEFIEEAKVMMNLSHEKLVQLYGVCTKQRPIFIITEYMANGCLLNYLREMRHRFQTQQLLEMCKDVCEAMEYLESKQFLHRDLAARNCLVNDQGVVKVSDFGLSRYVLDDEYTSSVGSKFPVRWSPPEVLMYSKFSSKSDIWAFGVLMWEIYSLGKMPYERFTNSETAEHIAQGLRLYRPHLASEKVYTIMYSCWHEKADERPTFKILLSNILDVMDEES
Sequence of Dual specificity mitogen-activated protein kinase kinase 5 (Homo sapiens) (Q13163 whole entry): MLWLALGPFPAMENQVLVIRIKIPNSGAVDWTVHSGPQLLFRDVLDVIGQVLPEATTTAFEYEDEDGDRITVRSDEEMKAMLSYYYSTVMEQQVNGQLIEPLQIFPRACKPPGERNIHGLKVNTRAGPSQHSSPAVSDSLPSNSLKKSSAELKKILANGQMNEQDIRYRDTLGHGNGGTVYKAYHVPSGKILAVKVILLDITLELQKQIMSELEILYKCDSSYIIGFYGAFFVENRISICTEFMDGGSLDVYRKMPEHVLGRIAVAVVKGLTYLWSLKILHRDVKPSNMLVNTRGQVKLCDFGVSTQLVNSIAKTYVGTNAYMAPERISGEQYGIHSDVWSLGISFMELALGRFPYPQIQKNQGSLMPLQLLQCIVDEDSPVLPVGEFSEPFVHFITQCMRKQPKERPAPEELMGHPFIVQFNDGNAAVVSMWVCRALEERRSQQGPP
Sequence of Sodium-dependent dopamine transporter (Homo sapiens) (Q01959 whole entry): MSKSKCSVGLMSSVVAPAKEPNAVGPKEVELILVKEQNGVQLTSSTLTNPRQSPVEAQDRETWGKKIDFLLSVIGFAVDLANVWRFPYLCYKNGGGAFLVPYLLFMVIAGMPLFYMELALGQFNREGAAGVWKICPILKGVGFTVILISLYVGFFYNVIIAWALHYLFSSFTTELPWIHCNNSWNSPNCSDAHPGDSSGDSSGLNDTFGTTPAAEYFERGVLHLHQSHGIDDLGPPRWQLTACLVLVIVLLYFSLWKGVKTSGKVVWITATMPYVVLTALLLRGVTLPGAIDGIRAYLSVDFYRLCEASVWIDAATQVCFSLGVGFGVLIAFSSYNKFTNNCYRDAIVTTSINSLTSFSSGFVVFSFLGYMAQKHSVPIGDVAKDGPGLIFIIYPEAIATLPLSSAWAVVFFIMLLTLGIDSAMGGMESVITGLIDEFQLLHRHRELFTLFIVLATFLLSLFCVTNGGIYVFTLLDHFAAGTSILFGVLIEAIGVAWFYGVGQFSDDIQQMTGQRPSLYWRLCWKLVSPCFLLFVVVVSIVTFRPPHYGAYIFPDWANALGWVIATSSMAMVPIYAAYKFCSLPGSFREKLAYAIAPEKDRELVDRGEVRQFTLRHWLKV
Sequence of Cyclin-dependent kinase 8 (Homo sapiens) (P49336 whole entry): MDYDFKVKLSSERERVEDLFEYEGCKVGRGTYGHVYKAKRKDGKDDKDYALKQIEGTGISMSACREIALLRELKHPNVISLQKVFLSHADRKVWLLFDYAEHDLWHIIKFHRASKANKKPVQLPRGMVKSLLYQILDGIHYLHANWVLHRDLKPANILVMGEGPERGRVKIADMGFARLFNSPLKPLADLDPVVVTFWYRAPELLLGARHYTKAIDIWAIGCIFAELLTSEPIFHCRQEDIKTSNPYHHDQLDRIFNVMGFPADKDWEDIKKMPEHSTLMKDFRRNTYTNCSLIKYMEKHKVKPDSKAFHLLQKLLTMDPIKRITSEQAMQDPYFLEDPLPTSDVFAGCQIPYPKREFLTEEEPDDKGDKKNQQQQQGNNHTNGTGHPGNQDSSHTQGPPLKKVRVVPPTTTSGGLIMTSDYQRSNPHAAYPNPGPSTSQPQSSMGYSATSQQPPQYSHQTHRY
Sequence of 5'-AMP-activated protein kinase catalytic subunit alpha-2 (Homo sapiens) (P54646 whole entry, looked up): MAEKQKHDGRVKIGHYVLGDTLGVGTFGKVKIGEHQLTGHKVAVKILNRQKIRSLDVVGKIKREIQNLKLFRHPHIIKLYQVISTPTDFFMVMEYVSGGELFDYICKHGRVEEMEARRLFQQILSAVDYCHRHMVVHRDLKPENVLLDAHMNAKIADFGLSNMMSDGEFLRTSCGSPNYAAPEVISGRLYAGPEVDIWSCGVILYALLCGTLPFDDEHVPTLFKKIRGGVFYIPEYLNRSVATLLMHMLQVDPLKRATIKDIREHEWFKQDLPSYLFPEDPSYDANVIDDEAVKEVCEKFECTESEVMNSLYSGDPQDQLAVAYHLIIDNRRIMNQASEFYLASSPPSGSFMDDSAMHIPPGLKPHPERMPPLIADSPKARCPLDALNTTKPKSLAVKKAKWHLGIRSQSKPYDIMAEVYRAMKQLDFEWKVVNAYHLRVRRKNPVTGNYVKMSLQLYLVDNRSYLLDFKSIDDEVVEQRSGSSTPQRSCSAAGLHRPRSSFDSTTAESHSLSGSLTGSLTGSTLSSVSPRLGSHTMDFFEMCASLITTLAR
Sequence of Beta-3 adrenergic receptor (Homo sapiens) (P13945 whole entry, looked up): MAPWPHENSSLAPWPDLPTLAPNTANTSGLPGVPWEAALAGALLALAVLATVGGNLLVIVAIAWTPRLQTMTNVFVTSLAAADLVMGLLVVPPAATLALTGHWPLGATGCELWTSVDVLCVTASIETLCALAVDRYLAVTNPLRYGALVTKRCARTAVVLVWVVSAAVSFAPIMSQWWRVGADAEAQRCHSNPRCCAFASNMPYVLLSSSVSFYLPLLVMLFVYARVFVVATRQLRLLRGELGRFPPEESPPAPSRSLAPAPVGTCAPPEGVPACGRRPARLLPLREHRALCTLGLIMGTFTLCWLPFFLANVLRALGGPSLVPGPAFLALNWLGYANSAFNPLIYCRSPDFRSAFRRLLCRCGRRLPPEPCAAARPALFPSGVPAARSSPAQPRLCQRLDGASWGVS
Sequence of Dual specificity mitogen-activated protein kinase kinase 3 (Homo sapiens) (P46734 whole entry): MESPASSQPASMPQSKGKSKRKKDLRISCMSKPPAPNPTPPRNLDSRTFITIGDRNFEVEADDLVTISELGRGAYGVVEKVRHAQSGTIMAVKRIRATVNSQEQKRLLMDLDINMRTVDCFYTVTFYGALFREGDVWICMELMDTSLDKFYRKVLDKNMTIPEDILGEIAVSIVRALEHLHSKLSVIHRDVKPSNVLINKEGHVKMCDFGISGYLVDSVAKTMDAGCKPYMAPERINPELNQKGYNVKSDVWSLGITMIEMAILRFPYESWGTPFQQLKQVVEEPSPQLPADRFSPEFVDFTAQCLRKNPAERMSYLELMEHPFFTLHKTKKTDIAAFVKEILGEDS

Structure (SMILES): COc1ccc2cc(OCC3(C(=O)O)CN(C(=O)c4ccc(F)cc4)C3)ccc2c1 [PF-04418948]
- inhibition [1]: -7%
- inhibition [2]: 13%
- inhibition [3]: 3%
- inhibition at 10 µM [4]: 17% (not active)
- inhibition [5]: -2%
- inhibition [6]: 11%
- inhibition [7]: -1%
- inhibition [8]: 9%
- inhibition [9]: 46%
- inhibition [10]: 6%
- inhibition [11]: -10%
- inhibition [12]: 5%
- inhibition [13]: 8%
- inhibition [14]: -1%
- inhibition [15]: -1%
- residual activity [16]: 87%
- residual activity [17]: 28%
- residual activity [18]: 95%
- residual activity [19]: 98%
- residual activity [20]: 95%
- residual activity [21]: 84%
- residual activity [22]: 94%
- residual activity [23]: 93%
- residual activity [24]: 76%
- residual activity [25]: 87%
- residual activity [26]: 74%
- residual activity [27]: 91%
- residual activity [28]: 67%
- residual activity [29]: 95%
- residual activity [30]: 76%
- residual activity [31]: 85%
- residual activity [32]: 76%
- residual activity [33]: 91%
- residual activity [34]: 95%
- residual activity [35]: 93%
- residual activity [36]: 78%
- residual activity [37]: 85%
- residual activity [38]: 92%
- residual activity [39]: 55%
- residual activity [40]: 64%
- residual activity [41]: 61%
- residual activity [42]: 86%
- residual activity [43]: 93%

Structure (SMILES): O=C(c1ccc(F)cc1)N1CC(COc2ccc(Br)cc2)(C(=O)O)C1 [PF-04475866]
- inhibition [44]: 20.3%
